What was measured:
[1] = test system: neutrophils; experiment: Cell migration (chemotaxis) assay, neutrophil counts; assay type: cell-based; conditions: 10 μM; MSU-conditioned media; FIG. 1A
[2] = test system: PBMCs; experiment: Cell migration (chemotaxis) assay, PBMC counts; assay type: cell-based; conditions: 10 μM; MSU crystal conditioned media; FIG. 1B
Protocol: Primary blood monocytes (PMBC) were obtained from the lymphocyte layer (buffy coat) of peripheral blood from normal donors. Each leukopack (Interstate Blood Bank) was diluted with an equal volume of PBS, and 35 mL of blood preparation was over-laid onto 15 mL of Ficoll-Paque™ PLUS (GE Healthcare Bio-Sciences). Tubes were centrifuged at 700×g without breaks for 30 minutes at room temperature. The buffy coat interface was removed, added to PBS (40 mL), and centrifuged at 300×g. Any remaining erythrocytes in the cell pellet were lysed by incubating cells in red blood cell lysis buffer (10 mL, R&D Systems) for 10 minutes at room temperature. Following lysis, PBS (40 mL) was added and the cells centrifuged for 5 minutes at 200×g. The pellet was washed once with PBS and re-suspended in complete RPMI and seeded onto a BD Falcon™ 100 mm tissue culture dish (Cat. No. 353003). After one hour, the media was aspirated and the adherent cells (predominantly monocytes) were harvested using a cell scraper and used in chemotaxis assays. Chemotaxis was assayed in 48-well plates with BD Falcon FluoroBlok Multiwell inserts with 3 μm pores (Cat. No. 351161 or 351162) coated with hFN. […] Fluorescence emitted from cells that had migrated to the bottom surface of the insert was measured at various time points. Cells labeled with Calcein AM were read at 485/530 nm (Ex/Em) wavelength. […]

[3] = molecular target: T1, CXCR-2 (Homo sapiens, UniProt P25025); conditions: cited from earlier work
T1 sequence (P25025 1-360): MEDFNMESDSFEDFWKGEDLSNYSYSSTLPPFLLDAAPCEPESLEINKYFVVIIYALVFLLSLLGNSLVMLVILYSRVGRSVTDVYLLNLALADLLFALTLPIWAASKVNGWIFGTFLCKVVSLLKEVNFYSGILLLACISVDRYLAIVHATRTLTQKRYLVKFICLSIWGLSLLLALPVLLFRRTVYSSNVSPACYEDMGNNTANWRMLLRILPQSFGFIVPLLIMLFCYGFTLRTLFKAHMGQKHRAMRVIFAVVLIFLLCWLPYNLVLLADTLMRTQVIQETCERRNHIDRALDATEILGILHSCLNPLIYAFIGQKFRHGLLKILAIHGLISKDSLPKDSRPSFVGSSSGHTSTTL

O=C(Nc1ccc(Cl)c(S(=O)(=O)N2CCNCC2)c1O)Nc1cccc(F)c1Cl [Compound 1, 1-(4-chloro-2-hydroxy-3-(piperazin-1-ylsulfonyl)phenyl)-3-(2-chloro-3-fluorophenyl)urea]
inhibition of migration in neutrophils [1]: significant inhibition of migration | inhibition in migration in PBMCs [2]: significant inhibition in migration | inhibit CXCR-2 [3]: shown to inhibit CXCR-2
